Read-outs that look alike come from different tables or passages of the source.
Assays:
[1] = cited from earlier work
[2] = Effects on rectal temperature (8-1), oral administration to rats; format: in vivo, rat; details: oral single doses of 3, 10 and 30 mg/kg; 30, 60 and 120 minutes; maximum absolute difference vs vehicle
Experimental: (8-1) Effects on Rectal Temperature
A test compound was orally administered to rats at single doses of 3, 10 and 30 mg/kg. Then rectal temperature was measured 30, 60 and 120 minutes after administration.
(§1) Differences of the mean value between a group treated with test substance and a vehicle-treated group were calculated at all measuring points and, based on the maximum absolute value of differences, changes in rectal temperature were divided into the following three categories:
(§2) −: the maximum value was less than 0.5 degree Celsius +: the maximum value was more than 0.5 degree but less than 1.0 degree Celsius ++: the maximum value was more than 1.0 degree Celsius

[3] = Effects on rectal temperature (8-2), oral administration to rats; format: in vivo, rat; details: single dose of 10 mg/kg, 30, 60 and 120 minutes, maximum absolute difference vs vehicle
Experimental: (§3) (8-2) Effects on Rectal Temperature
A test compound was orally administered to rats at single dose of 10 mg/kg. Then rectal temperature was measured 30, 60 and 120 minutes after administration.
as §1, §2

[4] = Effects on rectal temperature (8-2), administration into tail veins of rats; format: in vivo, rat; details: Intravenous, single dose of 1 mg/kg; 15, 30 and 60 minutes; maximum absolute difference vs vehicle
Experimental: as §3
A test compound was administered to rats into tail veins at single dose of 1 mg/kg. Then rectal temperature was measured 15, 30 and 60 minutes after administration.
as §1, §2

human TRPV1 = molecular target: T1, human TRPV1 (Homo sapiens, UniProt Q8NER1); assay: Capsaicin (10 nmol/L)-induced Ca influx in transformed CHO cells, FDSS-6000 (b-2), IC50; format: cell-based
T1 construct: expressed in transfected cells; host or cells: CHO-K1 cells, pCAGGS vector, clones selected by limiting dilution
Text: (1) Measurement of Capsaicin-Induced Ca Influx in a Transformed CHO Cell Line Expressing Human TRPV1
(a) Establishment of a Transformed CHO Cell Line Expressing Human and Rat TRPV1
Human and rat vanilloid receptor 1 (hTRPV1 and rTRPV1) cDNA was cloned from human brain and rat dorsal root ganglion, respectively. The cloned TRPV1 cDNA was incorporated in a pCAGGS vector. The vector was introduced to a CHO-K1 cell line, thus performing transformation. Clones obtained by limiting dilution were stimulated with capsaicin. Clones with a high responsiveness were selected using an increase in the Ca concentration as an indicator. The selected clones were used for the following experiment.
(b-2) Measurement of Ca Influx using FDSS-6000
The transformed CHO cells expressing human or rat TRPV1 were inoculated in a 96-well plate (with black walls and transparent bottoms, manufactured by Greiner) at a density of 40,000 cells per well. The cells were cultured at 37° C. in 5% CO2 atmosphere for one night. A loading solution of FLIPR Calcium 3 assay kit (manufactured by Molecular Devices Corporation) containing 2.5 mmol/L of probenecid was then added to each of the wells in the same amount as the culture medium, and the cells were cultured at 37° C. for 60 minutes. For three minutes after the cells were stimulated with capsaicin (10 nmol/L), the change of the intracellular Ca concentration was measured using FDSS-6000 (λex: 480 nm, λem: 540 nm, manufactured by Hamamatsu Photonics K.K.). The integrated values of the increase rate of the intracellular Ca concentration were calculated for a group treated with the compounds of the present invention and a group treated with a vehicle. Then, the concentration of the compound of the present invention was calculated that inhibits 50% of the intracellular Ca concentration increase induced by capsaicin (IC50). Using this value as the index, inhibitory effects of the test compounds were compared. In addition, when IC50 value in human TRPV1 was less than 100 nmol/L, it was shown as A in Table 1C.

T1 sequence (Q8NER1 whole entry): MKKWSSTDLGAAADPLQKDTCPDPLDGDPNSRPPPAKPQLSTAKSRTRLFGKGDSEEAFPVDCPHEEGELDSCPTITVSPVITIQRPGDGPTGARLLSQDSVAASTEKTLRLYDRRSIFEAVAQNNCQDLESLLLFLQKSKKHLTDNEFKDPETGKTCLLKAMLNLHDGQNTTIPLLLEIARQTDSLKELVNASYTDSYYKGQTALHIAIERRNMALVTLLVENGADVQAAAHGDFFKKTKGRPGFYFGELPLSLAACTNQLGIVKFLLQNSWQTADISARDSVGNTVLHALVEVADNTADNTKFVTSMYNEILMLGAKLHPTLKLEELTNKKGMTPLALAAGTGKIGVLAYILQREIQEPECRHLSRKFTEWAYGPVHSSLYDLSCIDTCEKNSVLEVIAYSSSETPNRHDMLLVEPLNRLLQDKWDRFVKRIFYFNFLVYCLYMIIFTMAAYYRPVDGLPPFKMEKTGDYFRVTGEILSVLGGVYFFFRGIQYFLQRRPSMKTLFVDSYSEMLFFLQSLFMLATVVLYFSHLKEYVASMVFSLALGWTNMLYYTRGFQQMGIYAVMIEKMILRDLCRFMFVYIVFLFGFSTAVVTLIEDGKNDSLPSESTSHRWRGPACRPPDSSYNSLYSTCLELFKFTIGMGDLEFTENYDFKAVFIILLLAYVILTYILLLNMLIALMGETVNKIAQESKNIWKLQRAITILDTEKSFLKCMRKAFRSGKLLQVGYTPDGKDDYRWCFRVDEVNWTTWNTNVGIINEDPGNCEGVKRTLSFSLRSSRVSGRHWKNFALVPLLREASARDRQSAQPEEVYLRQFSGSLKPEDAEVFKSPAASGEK

CC(C)(C)c1ccc(/C=C/C(=O)Nc2ccc3c(c2)OCCO3)cc1 [Compound B, (E)-3-(4-t-butylphenyl)-N-(2,3-dihydrobenzo[b][1,4]dioxine-6-yl)acrylamide]
Change of rat rectal temperature ([1]; Intraperitoneal, reference information (Non-Patent Document 4 or 5)): Increase^1) | Change in rectal temperature in rats ([1]; from published information (Non-Patent Document 4 or 5)): Increased^1)

CC(=O)Nc1nc2c(Oc3cc(-c4ccc(C(F)(F)F)cc4)ncn3)cccc2s1 [Compound C, N-(4-[6-(4-trifluoromethyl-phenyl)-pyrimidin-4-yloxy]-benzothiazol-2-yl)-acetamide, reference compound]
Change in rectal temperature in rats [2]: ++ (increased) (the maximum value was more than 1.0 degree Celsius) | Change of rat rectal temperature [3]: ++ (Increase) (the maximum value was more than 1.0 degree Celsius)

O=C(/C=C1\CCCOc2cc(C(F)(F)F)ccc21)Nc1cccc2c1CC(O)CN2 (centres unmarked) [Compound D, (E)-2-(8-trifluoromethyl-3,4-dihydrobenzo[b]oxepin-5(2H)-ylidene)-N-(3-hydroxy-1,2,3,4-tetrahydroquinolin-5-yl)acetamide, reference compound]
Change in rectal temperature in rats [2]: ++ (increased) (the maximum value was more than 1.0 degree Celsius) | Change of rat rectal temperature [4]: + (Increase) (the maximum value was more than 0.5 degree but less than 1.0 degree Celsius)

CN1C(=O)NCc2c(NC(=O)/C=C3\CC(C)(C)Oc4cc(C(F)(F)F)ccc43)cccc21 [Example 305, (E)-2-(2,2-dimethyl-7-trifluoromethylchroman-4-ylidene)-N-(3,4-dihydro-1-methyl-2(1H)-quinazolinone-5-yl)acetamide]
IC50 (human TRPV1): < 100 nM | Change of rat rectal temperature [4]: − (the maximum value was less than 0.5 degree Celsius)
